Literature values as cited in the CATMoS acute toxicity set (Mansouri et al. 2021).
Several values for one entry are separate records, joined by “and”; a condition that tells them apart may be missing. Equal values may be shown once.

test: rat acute oral toxicity; settings: in vivo

Row | SMILES | LD50
1 | O=C=NCCCCCCNC(=O)N(CCCCCCN=C=O)C(=O)NCCCCCCN=C=O | 19800 mg/kg
2 | O=C(CCl)OCCOCCO | 770 mg/kg
3 | OCC1CCC(CO)CC1 (stereo unspecified) | 3200 mg/kg
4 | O=C(Cn1ccnc1)c1ccc2ccccc2c1 | 504 mg/kg
5 | CC(=O)OC1=C(c2c(C)cc(C)cc2C)C(=O)c2ccccc21 | 8000 mg/kg
6 | CC(C)(C)NCC(O)COc1cc(Cl)ccc1Cl (stereo unspecified) | 1300 mg/kg
7 | CCCCCOc1c(Br)cc(Br)cc1COCCN(CC)CC | 350 mg/kg
8 | COC(=O)Nc1nc2ccccc2[nH]1 | 6400 mg/kg and 12500 mg/kg and 7500 mg/kg
9 | O=S(=O)(O)c1cc(Cl)ccc1C=Cc1ccc(-n2nc3cc(S(=O)(=O)O)c4ccccc4c3n2)cc1S(=O)(=O)O | 13700 mg/kg
10 | NC(=O)COc1ccc(Cl)cc1Cl | 1200 mg/kg
11 | CCCCC(CC)COCC1CO1 (stereo unspecified) | 7800 mg/kg
12 | CCCC(C)(COC(N)=O)COC(=O)NC(C)C (stereo unspecified) | 1320 mg/kg
13 | O=C(O)c1ccccc1C(=O)c1ccccc1 | 4600 mg/kg
14 | C=Cc1ccc(OC(C)=O)cc1 | 1500 mg/kg
15 | CC(CN)CCCN (stereo unspecified) | 1690 mg/kg
16 | O=S(=O)(C(Cl)CCl)C(Cl)CCl (stereo unspecified) | 250 mg/kg
17 | C[N+](C)([O-])c1ccc(N=Nc2ccccc2)cc1 | 2200 mg/kg
18 | CCOC(=O)C=[N+]=[N-] | 400 mg/kg
19 | FC1(F)CC(C2CC3(Cl)C(Cl)=C(Cl)C2(Cl)C3(Cl)Cl)C1(F)F (stereo unspecified) | 550 mg/kg
20 | CCCCCCc1ccc(C(CBr)OCC(CC)CCCC)cc1 (stereo unspecified) | 250 mg/kg
21 | NC(=O)Cc1c([O-])on[n+]1Cc1ccccc1 | 4450 mg/kg
22 | Cc1ccnc(N)c1 | 200 mg/kg
23 | O=c1cc(O)c1=O | 41 mg/kg
24 | C=CC(=O)OCCCOCC | 820 mg/kg

Row | SMILES | LD50
25 | COc1ccccc1OC(=O)CNC(=O)Cc1ccc(C(=O)c2ccc(C)cc2)n1C | 1450 mg/kg
26 | COC(C)CC(OC)OC (stereo unspecified) | 1480 mg/kg
27 | Clc1ccc(SCOC(Cn2ccnc2)c2ccc(Cl)cc2Cl)cc1 (stereo unspecified) | 3850 mg/kg
28 | CC(C)(C)NC(=O)[C@H]1CC[C@H]2[C@@H]3CC[C@H]4NC(=O)C=C[C@]4(C)[C@H]3CC[C@]12C | 418 mg/kg
29 | CNC(=O)ON=C1CCCC1(C)C#N (stereo unspecified) | 18 mg/kg
30 | CCOc1ccc(C(=O)COC(=O)CCC(=O)O)c2ccccc12 | 3500 mg/kg
31 | ClC(COCC(Cl)C(Cl)(Cl)Cl)C(Cl)(Cl)Cl (stereo unspecified) | 3630 mg/kg
32 | CC1(C)COS(=O)(=O)OC1 | 10 mg/kg
33 | COP(=O)(OC)Sc1ccc([N+](=O)[O-])cc1 | 42.9 mg/kg
34 | FC1(F)C(Cl)=C(Cl)C(F)(F)C1(F)F | 280 mg/kg
35 | Cn1c(=O)c2c(ncn2CCCCN2CCN(c3ccc(Cl)cc3)CC2)n(C)c1=O | 505 mg/kg
36 | O=C(O)c1cc(Cl)ccc1O | 250 mg/kg
37 | CCCCOC(=O)CCCCC(=O)OCCCC | 12900 mg/kg
38 | Cc1ccc(N2C(=O)C=CC2=O)cc1 | 710 mg/kg
39 | CC(C)OP(=S)(CCl)Sc1ccc(F)cc1 (stereo unspecified) | 39 mg/kg
40 | Nc1nc2cc(Cl)c(O)cc2o1 | 1070 mg/kg
41 | CN1[C@@H]2CC[C@H]1C[C@@H](OC(c1ccccc1)c1ccccc1)C2 | 940 mg/kg
42 | C[Si]1(C)N[Si](C)(C)N[Si](C)(C)N[Si](C)(C)N1 | 100 mg/kg
43 | COP(=S)(OC)SCSCCOC(N)=O | 44 mg/kg
44 | CC(C(=O)O)c1ccc2oc(-c3ccc(F)cc3)nc2c1 (stereo unspecified) | 521 mg/kg
45 | O=C(O)C(Cl)(Cl)CCl | 2460 mg/kg
46 | CCCCCCCCCCCCNC(N)=S | 1000 mg/kg
47 | O=c1[nH]c2ccccc2n1CCCN1CCC(n2c(=O)[nH]c3cc(Cl)ccc32)CC1 | 5240 mg/kg
48 | CCCCOC(=O)/C=C\C(=O)OCCCC | 3700 mg/kg

Row | SMILES | LD50
49 | CC1=C(C(C)C)CC=CC1 | 4270 mg/kg
50 | CCOC(=O)C1=C(COCCN)NC(C)=C(C(=O)OC)C1c1ccccc1Cl (stereo unspecified) | 393 mg/kg
51 | CN(C)C(=O)OC1=CC(=O)CC(C)(C)C1 | 120 mg/kg
52 | C[C@@H]1CC[C@H]2[C@@H](C)C(=O)O[C@@H]3O[C@@]4(C)CC[C@@H]1[C@]32OO4 | 5580 mg/kg
53 | CC(C)CC(CC(C)C)OCCOCCO | 8680 mg/kg
54 | CON=C(Cc1cccnc1)c1ccc(Cl)cc1Cl | 1700 mg/kg
55 | CCOC(=O)c1noc(C)c1C(=O)c1ccccc1 | 1000 mg/kg
56 | CN1C(=O)CN=C(c2ccccc2F)c2cc(Cl)ccc21 | 1740 mg/kg
57 | CC(=O)C=C1CCC2C13CCC(C)C(C3)C2(C)C (stereo unspecified) | 5200 mg/kg
58 | C=C(F)C(=O)OCC(F)(F)C(F)F | 60 mg/kg
59 | O=C(O)CCC(=O)c1ccc2oc3ccccc3c2c1 | 1280 mg/kg
60 | O=C(O)c1c(Cl)c(Cl)c(Cl)c(Cl)c1C(O)=Nc1cccc(Cl)c1Cl | 2340 mg/kg
61 | CC/C(=C(\c1ccccc1)c1ccc(OCCN(C)C)cc1)c1ccccc1 | 4100 mg/kg
62 | C=COC(=O)CCCCC(=O)OC | 6200 mg/kg
63 | CC(C)=CCN(CC=C(C)C)CCC(C(N)=O)c1cccc2ccccc12 (stereo unspecified) | 353 mg/kg
64 | C=CC(=O)NC(OC)C(=O)OC (stereo unspecified) | 2090 mg/kg
65 | CC1=CC(=O)C(C(C)C)CC1 (stereo unspecified) | 2450 mg/kg
66 | C[n+]1cc2c3c(ccc2c2ccc4cc5c(cc4c21)OCO5)OCO3 | 1660 mg/kg
67 | CC(=O)N(C)N=O | 20 mg/kg
68 | Nc1ccc(N)c2c1C(=O)c1ccccc1C2=O | 5790 mg/kg
69 | FC(F)(F)c1nc2ccc(Br)cc2[nH]1 | 49 mg/kg
70 | C#CCN1CCC2=C(C1)c1c(O)cc(C(C)C(C)CCCCC)cc1OC2(C)C (stereo unspecified) | 900 mg/kg
71 | CC(O)CN(CC(C)O)c1nc(Nc2ccc(S(=O)(=O)O)cc2)nc(Nc2ccc(/C=C/c3ccc(Nc4nc(Nc5ccc(S(=O)(=O)O)cc5)nc(N(CC(C)O)CC(C)O)n4)cc3S(=O)(=O)O)c(S(=O)(=O)O)c2)n1 (stereo unspecified) | 12100 mg/kg
